≈ marks a conversion by molar mass, not a printed value.
Assay: Toxicity against brine shrimp
Format: organism-based
Settings: artemia, in vivo

SMILES: C=C1C(=O)O[C@H]2[C@H]1CC[C@@]1(C)[C@@H](O)C=C[C@@]3(C)O[C@]231 [RATIBINOLIDE II]
- LC50: 69.5 µg/mL (≈ 265 µM)

From ChEMBL document CHEMBL1158982, “Chemical studies on Mexican plants used in traditional medicine, XXI. Ratibinolide II, a new sesquiterpene lactone from Ratibida latipalearis” (J Nat Prod, 1991)
